Measurements published in paper PMC6358021 (European journal of medicinal chemistry, 2018).
Values belong to the molecule of their own block, whether it stands above or below them.

Experiments:
P-glycoprotein (Pgp) = P-glycoprotein (Pgp) (Homo sapiens, UniProt P08183); assay: P-glycoprotein substrate assessment; type: in vitro ADME; settings: CRO service (Pharmaron or Cyprotex)
human Smo = settings: HEK293 cells that stably express human Smo; cited from earlier work
CYP3A4 = CYP3A4 (Homo sapiens, UniProt P08684); assay: CYP3A4 inhibition; type: in vitro ADME; settings: removal of the triazole moiety
Chain of CYP3A4 (P08684 whole entry): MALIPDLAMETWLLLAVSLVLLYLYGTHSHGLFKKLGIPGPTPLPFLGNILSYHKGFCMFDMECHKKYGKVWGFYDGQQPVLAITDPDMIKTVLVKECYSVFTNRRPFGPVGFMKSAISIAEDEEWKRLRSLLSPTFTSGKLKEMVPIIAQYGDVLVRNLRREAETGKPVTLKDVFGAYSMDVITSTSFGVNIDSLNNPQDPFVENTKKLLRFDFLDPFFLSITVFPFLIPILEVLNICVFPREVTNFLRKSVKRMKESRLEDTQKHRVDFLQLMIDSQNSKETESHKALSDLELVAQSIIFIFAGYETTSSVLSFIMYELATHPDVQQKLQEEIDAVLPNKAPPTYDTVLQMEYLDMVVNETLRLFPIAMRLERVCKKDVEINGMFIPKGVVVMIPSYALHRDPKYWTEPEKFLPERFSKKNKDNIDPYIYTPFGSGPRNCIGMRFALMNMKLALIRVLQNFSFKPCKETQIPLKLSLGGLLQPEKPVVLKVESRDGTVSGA

[1] = tested on: Gli1 mRNA expression in ASZ cells; assay: Hh inhibition: down-regulation of endogenous Gli1 mRNA expression in ASZ cells; type: cell-based, murine

Chain of P-glycoprotein (Pgp) (P08183 whole entry): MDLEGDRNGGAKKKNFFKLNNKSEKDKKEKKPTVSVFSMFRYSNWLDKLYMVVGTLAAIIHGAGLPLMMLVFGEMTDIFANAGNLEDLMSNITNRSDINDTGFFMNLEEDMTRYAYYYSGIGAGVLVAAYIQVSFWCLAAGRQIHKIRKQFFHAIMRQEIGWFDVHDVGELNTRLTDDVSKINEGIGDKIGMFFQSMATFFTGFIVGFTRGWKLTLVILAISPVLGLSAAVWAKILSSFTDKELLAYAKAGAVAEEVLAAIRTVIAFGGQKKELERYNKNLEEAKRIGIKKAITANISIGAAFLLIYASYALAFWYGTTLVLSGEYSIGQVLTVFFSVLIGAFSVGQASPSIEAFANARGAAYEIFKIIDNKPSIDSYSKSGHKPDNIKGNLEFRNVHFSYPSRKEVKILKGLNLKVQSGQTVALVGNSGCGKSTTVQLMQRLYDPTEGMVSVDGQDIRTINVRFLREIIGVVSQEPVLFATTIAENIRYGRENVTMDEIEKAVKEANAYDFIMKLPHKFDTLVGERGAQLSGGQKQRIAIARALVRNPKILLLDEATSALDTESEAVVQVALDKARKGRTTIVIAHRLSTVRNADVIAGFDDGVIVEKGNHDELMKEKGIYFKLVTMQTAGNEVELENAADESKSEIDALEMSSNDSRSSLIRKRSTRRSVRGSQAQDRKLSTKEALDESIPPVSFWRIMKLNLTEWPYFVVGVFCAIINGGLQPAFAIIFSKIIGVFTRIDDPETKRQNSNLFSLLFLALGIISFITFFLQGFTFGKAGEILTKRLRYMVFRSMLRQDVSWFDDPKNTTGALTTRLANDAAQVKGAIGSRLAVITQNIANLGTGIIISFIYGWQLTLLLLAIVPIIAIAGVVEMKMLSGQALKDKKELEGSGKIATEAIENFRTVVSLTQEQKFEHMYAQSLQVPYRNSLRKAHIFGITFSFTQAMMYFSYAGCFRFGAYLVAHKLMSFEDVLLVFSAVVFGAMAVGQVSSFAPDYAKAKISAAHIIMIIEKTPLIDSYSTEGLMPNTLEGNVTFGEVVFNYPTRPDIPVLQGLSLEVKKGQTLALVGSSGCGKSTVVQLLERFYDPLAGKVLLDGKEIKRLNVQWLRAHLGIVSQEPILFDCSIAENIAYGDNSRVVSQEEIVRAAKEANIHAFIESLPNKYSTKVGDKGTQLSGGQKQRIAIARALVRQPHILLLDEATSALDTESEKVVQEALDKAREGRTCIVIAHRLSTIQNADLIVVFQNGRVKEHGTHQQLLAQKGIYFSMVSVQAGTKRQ

- P-gp Substrate (P-glycoprotein (Pgp)): identified as a substrate
SMILES: CC[C@@H]([C@H](C)O)n1ncn(-c2ccc(N3CCN(c4ccc(OC[C@@H]5CO[C@@](Cn6cncn6)(c6ccc(F)cc6F)C5)cc4)CC3)cc2)c1=O [PSZ, Posaconazole, reference compound]

SMILES: CCC(C)n1ncn(-c2ccc(N3CCN(c4ccc(OCC5COC(Cn6cncn6)(c6ccc(Cl)cc6Cl)O5)cc4)CC3)cc2)c1=O (stereo not drawn) [ITZ, itraconazole]
- displacement of a tritiated Smo antagonist (human Smo): significantly displaced

- ability to inhibit Cyp3A4, in words (CYP3A4): completely abolished
- P-gp Substrate (P-glycoprotein (Pgp)): not a substrate
SMILES: CC[C@@H](C)n1ncn(-c2ccc(N3CCN(c4ccc(OC[C@@H]5CO[C@@](C)(c6ccc(F)cc6F)C5)cc4)CC3)cc2)c1=O [analogue 1, 2-((R)-sec-butyl)-4-(4-(4-(4-(((3R,5R)-5-(2,4-difluorophenyl)-5-methyltetrahydrofuran-3-yl)methoxy)phenyl)-piperazin-1-yl)phenyl)-2,4-dihydro-3H-1,2,4-triazol-3-one]
- fold more potent than PSZ ([1]; ratio of IC50 values): approximately 2.5 fold

SMILES: CC1(c2ccc(Cl)cc2Cl)OCC(COc2ccc(N3CCN(c4ccc(-n5cnn(CCC(=O)O)c5=O)cc4)CC3)cc2)O1 (stereo not drawn) [analogue 21, 3-(4-(4-(4-(4-((2-(2,4-dichlorophenyl)-2-methyl-1,3-dioxolan-4-yl)methoxy)phenyl)piperazin-1-yl)phenyl)-5-oxo-4,5-dihydro-1H-1,2,4-triazol-1-yl)propanoic acid]
- fold more active than 19 [1]: approximately 2 fold
